Results: patent US4056622A, “N-sulfonyl-N-dihalophenylimidazolidinediones” (Sumitomo Chemical Company, Limited, priority 1975, dated 1977)
In brackets after ≈: the same amount, converted by molar mass.

What was measured:
Alternaria bracissicola = assay: Test for Alternaria bracissicola-controlling effect (chinese cabbage); assay type: in vivo; conditions: 7 ml per pot
Description: An aqueous dilution of the test compound in the form of a wettable powder preparation was applied to chinese cabbage (variety: Nozaki No. 2), cultured in pots of 9 cm in diameter and almost grown up to the two leaved stage, at a rate of 7 ml per pot. After one day, a spore suspension of Alternaria bracissicola was sprayed on the surface of the leaf for inoculation. The pots were left in a dark, moist room for one day and then under illumination for 2 days. Then, the infectious state was examined. The degree of damage was determined in the following manner. The rate of infectious area on the leaf was measured and classified in one of the infectious indexes (0, 1, 2, 3, 4, 5) according to the undermentioned criteria. The number of leaves corresponding to each infectious index (n0, n1, n2, n3, n4, n5) was determined, and calculation was effected according to the undermentioned equation.

Sclerotinia sclerotiorum = assay: Test for Sclerotinia sclerotiorum-controlling effect on cucumbers; assay type: in vivo; conditions: cucumber; 100 ppm active ingredient, 7 ml per pot; 3 days after inoculation
Description: An aqueous dilution of the test compound in the form of a wettable powder preparation was applied to cucumbers, cultured in pots of 9 cm in diameter, when the first leaf was almost developed, at a rate of 7 ml per pot. After one day, Sclerotinia sclerotiorum was inoculated on the surface of the leaf, and the infectious state was examined three days thereafter. The degree of damage was determined in the following manner. The rate of infectious area on the leaf was measured and classified in one of the six infectious indexes (0, 1, 2, 3, 4, 5) according to the undermentioned criteria. The number of leaves corresponding to each infectious index (n0, n1, n2, n3, n4, n5) was determined, and calculation was effected according to the undermentioned equation.

Botrytis cinerea [1] = assay: Test for Botrytis cinerea on cucumbers: effect of prevention of diseased spot-development; assay type: in vivo; conditions: cucumber, 7 ml per pot, applied one day after inoculation
Description: The test for examining the effect of prevention of diseased spot-development was carried out in the following manner. An agar disc with the mycelium was attached to the first leaf for inoculation. After one day, the diameter of the diseased spot was measured. The solution of the test compound was applied to the plant at a rate of 7 ml per pot, and two days thereafter, the diameter of the diseased spot was again measured, and the effect for prevention of diseased spot-development was calculated according to the following equation: [formula]

Pellicularia sasakii = assay: Test for Pellicularia sasakii-controlling effect on rice plants; assay type: in vivo; conditions: dust, 1.4 % active ingredient, 3 kg per 10 a, 5 days after inoculation
Description: The test compound in the form of a dust preparation was applied to rice plants (variety: Wase-Asahi), cultured in porcelain Wagner pots (1/500 a) and grown up to a grass height of 50 to 60 cm, at a rate of 3 kg per 10 a by the use of a duster. After one day, a mycelial disc of Pellicularia sasakii was attached to the sheath of each stem for inoculation. Five days thereafter, the size of the diseased spot generated on the sheath was measured, and the degree of damage was calculated according to the following equation to estimate the disease-controlling effect of the compound. [formula]

Botrytis cinerea [2] = assay: Test for Botrytis cinerea-controlling effect on cucumbers: disease preventing effect; assay type: in vivo; conditions: cucumber; 50 ppm active ingredient, 7 ml per pot; 3 days after inoculation
Description: An aqueous dilution of the test compound in the form of a wettable powder preparation was applied to cotyledons of cucumbers, cultered in pots of 9 cm in diameter and the first leaf was nipped off when it developed, at a rate of 7 ml per pot. After one day, agar discs (diameter: 5 mm) with Botrytis cinerea were attached to the leaves for inoculation. Three days thereafter, the disease severity was observed, and the disease-controllingeffect was estimated.
(§1) Percentage of control was determined by the following procedure. The rate of diseased area on the tested leaf was measured and classified in one of the six infectious indexes (0, 1, 2, 3, 4, 5) according to the undermentioned criteria. The number of leaves corresponding to each infectious index (n0, n1, n2, n3, n4, n5) was determined, and calculation was effected according to the undermentioned equation.

Botrytis cinerea [3] = assay: Test for Botrytis cinerea on cucumbers: systemic activity by the water culture method; assay type: in vivo; conditions: cucumber, 5 ppm solution, 3 days, 3 days after inoculation
Description: The systemic activity of the test compound was tested by the water culture method in the following manner. The plants were pulled out from the pots carefully so as not to damage the roots, and the soil attached to the roots was well removed by water-washing. The plants were placed into flasks containing a 5 ppm solution of the test compound (50 ml) and allowed to stand for 3 days at a constant temperature under illumination. Agar discs with the mycelium were attached to the cotyledons for inoculation, and the degree of damage was examined three days thereafter.
as §1

[4] = system: Aspergillus niger ATCC 6275; assay: Antimicrobial spectrum against industrial fungi, agar medium dilution method: Aspergillus niger; assay type: cell-based; conditions: ATCC6275, A. niger, read-out: Minimal inhibitory concentration of active ingredient
Description: (§2) The effect for inhibition of hyphae growth was examined by the agar medium dilution method on Aspergillus niger ATCC 6275, Cladosporium herbarum IAM F 517 and Chaetomium globosum ATCC 6205 multiplying on industrial products and damaging them.

[5] = system: Chaetomium globosum ATCC 6205; assay: Antimicrobial spectrum against industrial fungi, agar medium dilution method: Chaetomium globosum; assay type: cell-based; conditions: ATCC6205, C. globosum, read-out: Minimal inhibitory concentration of active ingredient
Description: as §2

[6] = system: Cladosporium herbarum IAM F 517; assay: Antimicrobial spectrum against industrial fungi, agar medium dilution method: Cladosporium herbarum; assay type: cell-based; conditions: IAMF517, C. herbarum, read-out: Minimal inhibitory concentration of active ingredient
Description: as §2

Row | Compound | Degree of damage (Alternaria bracissicola; 100 ppm active ingredient) [%] | Degree of damage (Alternaria bracissicola; 200 ppm active ingredient) [%] | Degree of damage (Sclerotinia sclerotiorum) [%] | Disease-preventing value: Disease preventing effect (Botrytis cinerea [2]) [%] | Disease-preventing value: Systemic activity (Botrytis cinerea [3]) [%] | further results
1 | CS(=O)(=O)N1CC(=O)N(c2cc(Cl)cc(Cl)c2)C1=O [Compound 53] | 7 | 11 |  |  |  | 
2 | CCS(=O)(=O)N1CC(=O)N(c2cc(Cl)cc(Cl)c2)C1=O [Compound 54] | 5 | 2 | 12 |  |  | 
3 | CCCS(=O)(=O)N1CC(=O)N(c2cc(Cl)cc(Cl)c2)C1=O [Compound 55] | 0 | 0 | 0 | 100 | 88 | Effect for prevention of diseased spot-development (Botrytis cinerea [1]; 100 ppm): 88%; Degree of damage (Pellicularia sasakii): 25%
4 | CC(C)S(=O)(=O)N1CC(=O)N(c2cc(Cl)cc(Cl)c2)C1=O [Compound 56] |  |  | 0 | 100 | 92 | Effect for prevention of diseased spot-development (Botrytis cinerea [1]; 100 ppm): 78%; Degree of damage (Pellicularia sasakii): 19%
5 | CCCCS(=O)(=O)N1CC(=O)N(c2cc(Cl)cc(Cl)c2)C1=O [Compound 57] | 1 | 0 | 0 | 98 | 79 | Effect for prevention of diseased spot-development (Botrytis cinerea [1]; 100 ppm): 65%
6 | CC(C)CS(=O)(=O)N1CC(=O)N(c2cc(Cl)cc(Cl)c2)C1=O [Compound 58] |  |  |  | 100 | 63 | Effect for prevention of diseased spot-development (Botrytis cinerea [1]; 100 ppm): 73%
7 | CCC(C)S(=O)(=O)N1CC(=O)N(c2cc(Cl)cc(Cl)c2)C1=O (stereo not shown) [Compound 59] |  |  |  |  |  | MIC [4]: 1000 µg/mL (≈ 2740 µM); MIC [5]: 1000 µg/mL (≈ 2740 µM); MIC [6]: 1000 µg/mL (≈ 2740 µM); Degree of damage (Pellicularia sasakii): 19%
8 | CCCCCS(=O)(=O)N1CC(=O)N(c2cc(Cl)cc(Cl)c2)C1=O [Compound 61] |  |  |  |  |  | MIC [4]: 1000 µg/mL (≈ 2640 µM); MIC [5]: 1000 µg/mL (≈ 2640 µM); MIC [6]: 2000 µg/mL (≈ 5270 µM)
9 | C=CCS(=O)(=O)N1CC(=O)N(c2cc(Cl)cc(Cl)c2)C1=O [Compound 63] |  |  | 9 |  |  | 
10 | CCCS(=O)(=O)N1CC(=O)N(c2cc(Br)cc(Br)c2)C1=O [Compound 64] |  |  | 0 |  |  | 
11 | CCCS(=O)(=O)N1C(=O)N(c2cc(Cl)cc(Cl)c2)C(=O)C1C (stereo not shown) [Compound 66] |  |  | 3 |  |  | Degree of damage (Pellicularia sasakii): 16%
12 | CCCS(=O)(=O)N1C(=O)N(c2cc(Cl)cc(Cl)c2)C(=O)C1(C)C [Compound 69] | 21 | 6 |  |  |  | 
13 | O=C1CN(S(=O)(=O)CCCCl)C(=O)N1c1cc(Cl)cc(Cl)c1 [Compound 70] | 2 | 1 | 0 |  |  | 
14 | CCCCNC(=O)n1c(NC(=O)OC)nc2ccccc21 [Methyl-1-(butylcarbamoyl)-2-benzimidazole carbamate, reference compound] |  |  | 32 | 90 | 91 | Effect for prevention of diseased spot-development (Botrytis cinerea [1]; 500 ppm): 87%
15 | CCC(=O)N1CC(=O)N(c2cc(Cl)cc(Cl)c2)C1=O [reference compound] |  |  |  | 89 | 0 | Effect for prevention of diseased spot-development (Botrytis cinerea [1]; 500 ppm): 21%
16 | O=C1CNC(=O)N1c1cc(Cl)cc(Cl)c1 [reference compound] |  |  |  | 70 | 0 | Effect for prevention of diseased spot-development (Botrytis cinerea [1]; 500 ppm): 13%
